Like-named read-outs stand apart in the source and are kept apart here.
Tests used:
[1] = test system: tobacco mosaic virus (TMV); experiment: Direct effect on TMV infectivity: virus incubated with substance, then Xanthi tobacco leaves infected (Example 21); format: in vivo; settings: TMV about 3 μg/ml mixed 1:1 with substance 80 mg/L, 30 min; 5 days after infection; control 100
Method: Sodium 3-chlorosalicylate; 5. Potassium 3-chlorosalicylate; 6. Calcium 3-chlorosalicylate; 7. Magnesium 3-chlorosalicylate (concentration 80 mg/L), in a 1:1 ratio and incubated for 30 min at room temperature. The control variant consisted of TMV incubated in water. All virus suspensions were used to mechanically infect Xanthi tobacco leaves, whose reaction to infection is manifested in easily quantifiable local necrotic spots (hypersensitivity, local infection).
After 5 days, the area of leaf covered by necrotic spots compared to total leaf area was calculated for plants of all variants of treatment.

[2] = test system: Pseudomonas syringae pv. Tomato (Pst); settings: 2 weeks after infection
Method: Tobacco plants at the stage of 3 developed leaves were watered twice, at a weekly interval, with a solution of test substances 1-11 at concentrations of 10, 40, 80 mg/L. The control was tobacco plants watered with water only. One week after the second treatment, a suspension of Pst bacteria at a concentration of 10^5 was spotted into the leaves using an insulin syringe (without a needle). The suspension was prepared from a two-day culture of Pst on solid medium. Protection against biotic stress was evaluated by the proliferation of bacteria in the leaves at the insertion site and the formation of a necrotic spot, compared to the control.
We proceeded as in Example 30, with the effectiveness of protection against biotic stress tested against bacterial cell concentrations raised to about 10^6.

[3] = test system: Pseudomonas syringae pv. Tomato (Pst); experiment: Protection of tomato against Pseudomonas syringae pv. Tomato by watering (Example 32); format: in vivo; settings: 80 mg/L; watered twice; Pst 10^5; 2 weeks after infection
Method: (§1) Tomato plants, at the stage of the first pair of developed true leaves, were watered twice with a solution of substance 1-6 at a concentration of 80 mg/L, at a weekly interval. The control was tomato plants watered only with water. One week after the second treatment, a suspension of Pst bacteria at a concentration of 10^5 was spot-injected into the leaves using an insulin syringe (without a needle). The suspension was prepared from a two-day culture of Pst on solid medium. Protection against biotic stress was evaluated by the proliferation of bacteria in the leaves at the insertion site and the formation of a necrotic spot, compared to the control.

[4] = test system: powdery mildew fungus; experiment: Protection of tomato against powdery mildew by spraying (Example 35); format: in vivo, Lycopersicon Esculentum Mill tomato; settings: 40 mg/l, sprayed twice; 2 weeks after pathogen inoculation
Method: […] The control was tomato plants watered only with water. […] The suspension was prepared from culture on solid medium. Protection against biotic stress was evaluated by comparing the area of leaves affected by infection.
Proceeded in the way as described in Example 34, with the difference that plants were sprayed and not watered.

[5] = test system: Brome Mosaic Virus (BMV); experiment: Protection of barley against Brome Mosaic Virus infection by watering (Examples 28 and 29); format: in vivo; settings: 2 weeks after infection
[6] = test system: powdery mildew fungus; experiment: Direct effect on fungal infectivity (Example 23); format: in vivo; settings: tobacco plant, 5 days after infection with solution of fungus and test substance; control 100
Method: Proceeding as in Example 21, the test was performed on the powdery mildew fungus, which was then incubated on the medium.

[7] = test system: Pseudomonas syringae pv. Tomato (Pst); experiment: Protection of tomato against Pseudomonas syringae pv. Tomato by spraying (Example 33); format: in vivo, Lycopersicon Esculentum Mill tomato; settings: 80 mg/L, sprayed twice; 2 weeks after infection
Method: as §1
The procedure was followed as in Example 32, with the plants sprayed.

[8] = test system: lettuce
From the text: The purpose of the study was to determine the effect of foliar spraying with test solutions on lettuce (Lactuca sativa L. ‘Zeralda’) plants. The plants were sprayed 7 and 14 days after transplanting to a permanent site. […] After another 7 days, drought stress was induced (plants in the selected combinations were not watered until symptoms of leaf wilting appeared), followed by proper watering of the plants again. Control plants were watered in turn to a constant weight. After 3 days after re-watering, chlorophyll fluorescence was measured (OJIP test, methodology described, among others, in Kalaji H. M., 2011. Impact of abiotic stress factors on chlorophyll fluorescence in plants of selected barley cultivars Hordeum vulgare L. SGGW Publishing House, Warsaw [https://badanieroslin.pl/wp-content/uploads/2018/11/Oddzialywanie-abiotycznych-czynnikow. . . ..pdf]) and the condition of the plants was assessed.
The measurement was carried out after inducing drought stress, followed by re-watering the plants to a constant weight. […] This parameter is lowered by stresses.

[9] = Control (watered), double application, 3-chlorosalicylate 100 mg/L, benzothiadiazole salt 50 mg/L
[10] = Drought, double application, 3-chlorosalicylate 100 mg/L, benzothiadiazole salt 50 mg/L
[11] = double application, 3-chlorosalicylate 100 mg/L, benzothiadiazole salt 50 mg/L
[12] = Control (watered), single application, 50 mg/L
[13] = Drought, single application, 50 mg/L

SMILES: C[N+](C)(C)CCO.O=C([O-])c1cccc(Cl)c1O [choline 3-chlorosalicylate]
- % of necrotic spots [1]: 98%
- % reduction in necrotic spots compared to control ([2]; 10 mg/L, watered twice, Pst 10^5): 65%
- % reduction in necrotic spots compared to control ([2]; 40 mg/L, watered twice, Pst 10^5): 72%
- % reduction in necrotic spots compared to control ([2]; 80 mg/L, bacterial cell concentration raised to about 10^6): 85%
- % reduction in necrotic spots compared to control ([2]; 80 mg/L, watered twice, Pst 10^5): 89%
- % reduction in necrotic spots compared to control [3]: 92%
- Reduction in necrotic spots (white patches) compared to control [4]: 72%
- % reduction in necrotic spots compared to control ([5]; 10 mg/L, watered): 69%
- % reduction in necrotic spots compared to control ([5]; 80 mg/L, watered twice): 100%
- % reduction in necrotic spots compared to control ([5]; 80 mg/L, watered twice, listed as 2-hydroxyethyl(trimethyl)ammonium 3-chlorosalicylate): 98%
- % of necrotic spots [6]: 100%
- % reduction in necrotic spots compared to control [7]: 93%
- ABS/RC [8, 9]: 1.48 b
- DIo/RC [8, 9]: 0.24 a
- ETo/RC [8, 9]: 1.08 b
- F0 [8, 9]: 4877 a
- FM [8, 9]: 34278 a
- FM/F0 [8, 9]: 7.32 c
- Fv [8, 9]: 29401 a
- Fv/F0 [8, 9]: 6.32 c
- Fv/FM [8, 9]: 0.86 c
- Pi_Abs (PSII functioning index calculated on the basis of energy absorption) [8, 9]: 12.74 days
- TRo/RC [8, 9]: 1.72 b
- ABS/RC [8, 10]: 1.20 a
- DIo/RC [8, 10]: 0.24 a
- ETo/RC [8, 10]: 0.81 a
- F0 [8, 10]: 5524 a
- FM [8, 10]: 33908 a
- FM/F0 [8, 10]: 6.16 ab
- Fv [8, 10]: 28384 b
- Fv/F0 [8, 10]: 5.16 ab
- Fv/FM [8, 10]: 0.84 ab
- Pi_Abs (PSII functioning index calculated on the basis of energy absorption) [8, 10]: 7.77 b
- TRo/RC [8, 10]: 1.44 a
- % dry matter (leaf), Average [8, 11]: 3.72 b %
- % dry matter (leaf), Drought [8, 11]: 3.55 b %
- % dry matter (leaf), Watered [8, 11]: 3.96 b %
- Head and root weight, Average [8, 11]: 72.5 a g/plant
- Head and root weight, Drought [8, 11]: 71.7 abc g/plant
- Head and root weight, Watered [8, 11]: 73.2 abc g/plant
- Head weight, Average [8, 11]: 51.3 a g/plant
- Head weight, Drought [8, 11]: 52.8 b g/plant
- Head weight, Watered [8, 11]: 50.6 ab g/plant
- RWC (relative water content), Watered [8, 11]: 73.2 ab %
- RWC, Average [8, 11]: 73.3 a %
- RWC, Drought [8, 11]: 71.9 ab %

SMILES: C[N+](C)(C)CCO.O=C([O-])c1cccc2nnsc12
- ABS/RC [8, 9]: 1.46 b
- DIo/RC [8, 9]: 0.28 b
- ETo/RC [8, 9]: 0.93 ab
- F0 [8, 9]: 7100 b
- FM [8, 9]: 45265 b
- FM/F0 [8, 9]: 6.52 ab
- Fv [8, 9]: 38164 b
- Fv/F0 [8, 9]: 5.52 abc
- Fv/FM [8, 9]: 0.85 abc
- Pi_Abs (PSII functioning index calculated on the basis of energy absorption) [8, 9]: 10.33 ab
- TRo/RC [8, 9]: 1.74 b
- ABS/RC [8, 12]: 1.45 b
- DIo/RC [8, 12]: 0.28 b
- ETo/RC [8, 12]: 0.87 ab
- F0 [8, 12]: 6762 b
- FM [8, 12]: 41874 b
- FM/F0 [8, 12]: 6.19 abc
- Fv [8, 12]: 35112 b
- Fv/F0 [8, 12]: 5.19 abc
- Fv/FM [8, 12]: 0.84 abc
- Pi_Abs (PSII functioning index calculated on the basis of energy absorption) [8, 12]: 4.47 a
- TRo/RC [8, 12]: 1.74 b
- ABS/RC [8, 10]: 1.14 a
- DIo/RC [8, 10]: 0.20 a
- ETo/RC [8, 10]: 0.84 ab
- F0 [8, 10]: 4965 a
- FM [8, 10]: 34715 a
- FM/F0 [8, 10]: 6.99 bc
- Fv [8, 10]: 29750 b
- Fv/F0 [8, 10]: 5.99 ab
- Fv/FM [8, 10]: 0.86 c
- Pi_Abs (PSII functioning index calculated on the basis of energy absorption) [8, 10]: 12.61 days
- TRo/RC [8, 10]: 1.34 a
- ABS/RC [8, 13]: 1.12 a
- DIo/RC [8, 13]: 0.24 a
- ETo/RC [8, 13]: 0.75 a
- F0 [8, 13]: 5675 a
- FM [8, 13]: 32147 a
- FM/F0 [8, 13]: 5.67 a
- Fv [8, 13]: 26472 a
- Fv/F0 [8, 13]: 4.67 a
- Fv/FM [8, 13]: 0.83 a
- Pi_Abs (PSII functioning index calculated on the basis of energy absorption) [8, 13]: 7.47 b
- TRo/RC [8, 13]: 1.36 a
- % dry matter (leaf), Average [8, 11]: 4.67 b %
- % dry matter (leaf), Drought [8, 11]: 3.61 a %
- % dry matter (leaf), Watered [8, 11]: 5.73 c %
- Head and root weight, Average [8, 11]: 69.4 a g/plant
- Head and root weight, Drought [8, 11]: 70.6 ab g/plant
- Head and root weight, Watered [8, 11]: 69.2 a g/plant
- Head weight, Average [8, 11]: 53.4 a g/plant
- Head weight, Drought [8, 11]: 51.6 ab g/plant
- Head weight, Watered [8, 11]: 51.6 b g/plant
- RWC (relative water content), Watered [8, 11]: 74.3 b %
- RWC, Average [8, 11]: 75.0 a %
- RWC, Drought [8, 11]: 64.0 a %
- % dry matter (leaf), Average ([8]; single application, 50 mg/L): 3.75 b %
- % dry matter (leaf), Drought ([8]; single application, 50 mg/L): 3.59 b %
- % dry matter (leaf), Watered ([8]; single application, 50 mg/L): 3.51 b %
- Head and root weight, Average ([8]; single application, 50 mg/L): 84.6 b g/plant
- Head and root weight, Drought ([8]; single application, 50 mg/L): 84.4 bc g/plant
- Head and root weight, Watered ([8]; single application, 50 mg/L): 85.2 c g/plant
- Head weight, Average ([8]; single application, 50 mg/L): 65.1 b g/plant
- Head weight, Drought ([8]; single application, 50 mg/L): 62.5 c g/plant
- Head weight, Watered ([8]; single application, 50 mg/L): 65.3 c g/plant
- RWC (relative water content), Watered ([8]; single application, 50 mg/L): 77.1 b %
- RWC, Average ([8]; single application, 50 mg/L): 74.5 a %
- RWC, Drought ([8]; single application, 50 mg/L): 71.5 ab %
